Molecules are shown by their SMILES.

In general, EC50 refers to the concentration needed to bring the measured effect to its halfway point.

The target of one test is T1, human mGluR5 (Homo sapiens, UniProt P41594).
T1 construct: expressed in transfected cells; host or cells: HEK293 cells stably expressing rat GLAST (EAAT1), stably transfected with pcDNAzeo3.1 carrying synthetic human mGluR5 DNA; zeocin-selected single clones
T1 sequence (P41594 21-1212): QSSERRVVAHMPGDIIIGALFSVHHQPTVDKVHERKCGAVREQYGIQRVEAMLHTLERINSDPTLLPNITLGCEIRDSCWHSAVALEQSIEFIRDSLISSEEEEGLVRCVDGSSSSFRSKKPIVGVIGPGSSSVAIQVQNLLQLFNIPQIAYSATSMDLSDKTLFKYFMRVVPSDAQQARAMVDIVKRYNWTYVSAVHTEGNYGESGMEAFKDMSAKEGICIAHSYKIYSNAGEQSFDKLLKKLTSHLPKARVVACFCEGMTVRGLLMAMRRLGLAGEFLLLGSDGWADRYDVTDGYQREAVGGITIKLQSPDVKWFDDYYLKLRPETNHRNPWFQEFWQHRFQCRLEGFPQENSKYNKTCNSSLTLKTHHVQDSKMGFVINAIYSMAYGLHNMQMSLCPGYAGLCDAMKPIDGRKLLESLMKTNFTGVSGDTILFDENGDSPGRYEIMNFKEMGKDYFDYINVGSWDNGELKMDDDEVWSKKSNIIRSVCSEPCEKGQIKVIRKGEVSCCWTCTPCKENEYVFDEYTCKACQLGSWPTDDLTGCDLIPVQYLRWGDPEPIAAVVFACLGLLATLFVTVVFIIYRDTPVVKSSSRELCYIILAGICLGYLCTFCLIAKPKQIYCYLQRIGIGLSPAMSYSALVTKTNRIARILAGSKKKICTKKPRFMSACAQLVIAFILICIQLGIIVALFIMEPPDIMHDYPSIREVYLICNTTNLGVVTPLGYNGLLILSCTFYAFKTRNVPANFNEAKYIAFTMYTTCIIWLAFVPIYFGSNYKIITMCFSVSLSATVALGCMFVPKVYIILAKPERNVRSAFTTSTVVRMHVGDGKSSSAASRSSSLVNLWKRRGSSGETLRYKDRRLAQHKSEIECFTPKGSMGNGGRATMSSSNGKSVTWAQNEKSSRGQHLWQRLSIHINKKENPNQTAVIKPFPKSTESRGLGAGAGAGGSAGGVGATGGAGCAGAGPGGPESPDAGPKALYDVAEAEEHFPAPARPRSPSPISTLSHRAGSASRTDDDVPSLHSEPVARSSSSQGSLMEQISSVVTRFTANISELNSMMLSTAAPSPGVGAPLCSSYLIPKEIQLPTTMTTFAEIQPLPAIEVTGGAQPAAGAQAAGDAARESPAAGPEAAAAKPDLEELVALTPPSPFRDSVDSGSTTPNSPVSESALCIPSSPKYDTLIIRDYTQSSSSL
The test is described as follows: In vitro cell-based FLIPR calcium assay for positive modulation of the activation of mGluR5 by glutamate (PAM EC50). The following applies: HEK293/GLAST cells expressing recombinant human mGluR5; FLIPR calcium signal; glutamate added at its EC20; read-out: mGluR5 PAM EC50. The essentials:
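PAM activity was measured as FLIPR calcium fluorescence in the presence of an EC20 glutamate concentration determined daily from a glutamate concentration-response curve. Cells were HEK293/GLAST clones expressing mGluR5, dye-loaded at 25 °C for 45–60 min in HEPES-buffered HBSS; vehicle control was 0.3% DMSO.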
On to `N#CC1CCc2nc3cc(C#Cc4ccccn4)ccc3c(=O)n2CC1` (stereo not drawn) [Example 6.39, 12-oxo-3-(pyridin-2-ylethynyl)-6,7,8,9,10,12-hexahydroazepino[2,1-b]quinazoline-8-carbonitrile], for which the concentration for a half-maximal effect (EC50) fell in the range of 100 to 300 nM.
`CC1CCCc2nc3cc(C#Cc4ccccn4)ccc3c(=O)n2C1` (stereo not drawn) [Example 6.42, 9-methyl-3-(pyridin-2-ylethynyl)-7,8,9,10-tetrahydroazepino[2,1-b]quinazolin-12(6H)-one]: the EC50 is less than 10 nM.
For `CC1(C)CCCc2nc3cc(C#Cc4ccccn4)ccc3c(=O)n2C1` [Example 6.43, 9,9-dimethyl-3-(pyridin-2-ylethynyl)-7,8,9,10-tetrahydroazepino[2,1-b]quinazolin-12(6H)-one], the EC50 lay within 10 to 30 nM.
Turning to `CC1CCCCc2nc3cc(C#Cc4ccccn4)ccc3c(=O)n21` (stereo not drawn) [Example 6.44, 10-methyl-3-(pyridin-2-ylethynyl)-7,8,9,10-tetrahydroazepino[2,1-b]quinazolin-12(6H)-one], the EC50 is less than 10 nM.
With `N#Cc1cccc(C#Cc2ccc3c(=O)n4c(nc3c2)CCCCC4)n1` [Example 6.45], the EC50 fell in the range of 10 to 30 nM.
On the same count and under the same terms, in the case of `O=c1c2ccc(C#Cc3ccccn3)cc2nc2n1CCC(F)CC2` (stereo not drawn) [Example 6.46, 8-fluoro-3-(pyridin-2-ylethynyl)-7,8,9,10-tetrahydroazepino[2,1-b]quinazolin-12(6H)-one] it was less than 10 nM; in that of `CC1CCc2nc3cc(C#Cc4cccc(C#N)n4)ccc3c(=O)n2CC1` (stereo not drawn) [Example 6.47, 6-((8-methyl-12-oxo-6,7,8,9,10,12-hexahydroazepino[2,1-b]quinazolin-3-yl)ethynyl)picolinonitrile], 30 to 100 nM; in that of `CC1(F)CCc2nc3cc(C#Cc4ccccn4)ccc3c(=O)n2CC1` (stereo not drawn) [Example 6.48, 8-fluoro-8-methyl-3-(pyridin-2-ylethynyl)-7,8,9,10-tetrahydroazepino[2,1-b]quinazolin-12(6H)-one], less than 10 nM.
Still for that read-out and setting: in the case of `CC1(O)CCc2nc3cc(C#Cc4ccccn4)ccc3c(=O)n2CC1` (stereo not drawn) [Example 6.49, 8-hydroxy-8-methyl-3-(pyridin-2-ylethynyl)-7,8,9,10-tetrahydroazepino[2,1-b]quinazolin-12(6H)-one] it was 100 to 300 nM; in that of `COC1(C)CCc2nc3cc(C#Cc4ccccn4)ccc3c(=O)n2CC1` (stereo not drawn) [Example 6.50, 8-methoxy-8-methyl-3-(pyridin-2-ylethynyl)-7,8,9,10-tetrahydroazepino[2,1-b]quinazolin-12(6H)-one], 30 to 100 nM.
Take `O=c1c2ccc(C#Cc3ccccn3)cc2nc2n1CCC1(CC2)CC1` [Example 6.51, 3-(pyridin-2-ylethynyl)-9,10-dihydro-6H-spiro[azepino[2,1-b]quinazoline-8,1′-cyclopropan]-12(7H)-one]: the EC50 is less than 10 nM.
On the same count and under the same terms, the figure for `O=c1c2ccc(C#Cc3ccccc3)cc2nc2n1CCC1(CC2)OCCO1` [Example 7.1] is 10 to 30 nM; for `O=c1c2ccc(C#Cc3ccccc3F)cc2nc2n1CCC1(CC2)OCCO1` [Example 7.2] it is 30 to 100 nM.
Same read-out and setting: in the case of `O=c1c2ccc(C#Cc3ccc(F)cc3)cc2nc2n1CCC1(CC2)OCCO1` [Example 7.3] it was 30 to 100 nM; in that of `O=c1c2ccc(C#Cc3ccc(F)c(F)c3)cc2nc2n1CCC1(CC2)OCCO1` [Example 7.5], 100 to 300 nM; in that of `Cc1cc(F)ccc1C#Cc1ccc2c(=O)n3c(nc2c1)CCC1(CC3)OCCO1` [Example 7.6], 300 to 1000 nM.
On the same count and under the same terms, in the case of `O=c1c2ccc(C#Cc3cccc(Cl)c3)cc2nc2n1CCC1(CC2)OCCO1` [Example 7.8] it was 300 to 1000 nM.
As for `O=c1c2ccc(C#Cc3ccc(Cl)cc3)cc2nc2n1CCC1(CC2)OCCO1` [Example 7.09], the EC50 lay in the range of 300 to 1000 nM.
The same measure, in the same setting: the figure for `O=c1c2ccc(C#Cc3ccccn3)cc2nc2n1CCC1(CC2)OCCO1` [Example 7.10] is 30 to 100 nM; for `O=c1c2ccc(C#Cc3cccnc3)cc2nc2n1CCC1(CC2)OCCO1` [Example 7.11] it is 300 to 1000 nM.
For the molecule `O=c1c2ccc(C#Cc3ccncc3)cc2nc2n1CCC1(CC2)OCCO1` [Example 7.12], the EC50 lay within 10 to 30 nM.
`O=c1c2ccc(C#Cc3ccc(F)cn3)cc2nc2n1CCC1(CC2)OCCO1` [Example 7.13]: the EC50 was in the range of 30 to 100 nM.
Regarding `O=c1c2ccc(C#Cc3cccnc3F)cc2nc2n1CCC1(CC2)OCCO1` [Example 7.14], the EC50 fell in the range of 100 to 300 nM.
The same measure, in the same setting: in the case of `O=c1c2ccc(C#Cc3ccc(F)nc3)cc2nc2n1CCC1(CC2)OCCO1` [Example 7.15] it was 30 to 100 nM; in that of `O=c1c2ccc(C#Cc3ccncc3F)cc2nc2n1CCC1(CC2)OCCO1` [Example 7.16], 100 to 300 nM; in that of `O=c1c2ccc(C#Cc3ccnc(F)c3)cc2nc2n1CCC1(CC2)OCCO1` [Example 7.17], 30 to 100 nM.
In the case of `N#Cc1cc(C#Cc2ccc3c(=O)n4c(nc3c2)CCC2(CC4)OCCO2)ccc1F` [Example 7.19], the concentration for a half-maximal effect (EC50) was in the range of 300 to 1000 nM.
Turning to `Cc1cccc(C#Cc2ccc3c(=O)n4c(nc3c2)CCC2(CC4)OCCO2)c1` [Example 7.31], the 50% effective concentration (EC50) lay in the range of 100 to 300 nM.
On the same count and under the same terms, in the case of `Cc1ccc(C#Cc2ccc3c(=O)n4c(nc3c2)CCC2(CC4)OCCO2)cc1` [Example 7.32] it was 300 to 1000 nM.
On to `N#Cc1cccc(C#Cc2ccc3c(=O)n4c(nc3c2)CCC2(CC4)OCCO2)c1` [Example 7.38], for which the EC50 was 30 to 100 nM.
Take `N#Cc1ccc(C#Cc2ccc3c(=O)n4c(nc3c2)CCC2(CC4)OCCO2)cc1` [Example 7.39]: the EC50 lay in the range of 300 to 1000 nM.
Consider `O=c1c2ccc(C#Cc3ccccc3C(F)(F)F)cc2nc2n1CCC1(CC2)OCCO1` [Example 7.40], for which the half-maximal effective concentration (EC50) is 100 to 300 nM.
The same measure, in the same setting: the figure for `Cc1cccc(C#Cc2ccc3c(=O)n4c(nc3c2)CCC2(CC4)OCCO2)n1` [Example 7.46] is 100 to 300 nM; for `Cc1cc(C#Cc2ccc3c(=O)n4c(nc3c2)CCC2(CC4)OCCO2)ccn1` [Example 7.47] it is 10 to 30 nM; for `Cc1ccnc(C#Cc2ccc3c(=O)n4c(nc3c2)CCC2(CC4)OCCO2)c1` [Example 7.48] it is 30 to 100 nM.
As to `O=c1c2ccc(C#CC3=CCCC3)cc2nc2n1CCC1(CC2)OCCO1` [Example 7.51], the EC50 is 100 to 300 nM.
As for `O=c1c2ccc(C#CC3CCCC3)cc2nc2n1CCC1(CC2)OCCO1` [Example 7.52], the EC50 is 300 to 1000 nM.
For the molecule `O=c1c2ccc(C#CC3=CCCCC3)cc2nc2n1CCC1(CC2)OCCO1` [Example 7.53], the concentration for a half-maximal effect (EC50) was 300 to 1000 nM.
Consider `O=c1c2ccc(C#CC3CCCCC3)cc2nc2n1CCC1(CC2)OCCO1` [Example 7.54], for which the EC50 is 300 to 1000 nM.
On the same count and under the same terms, in the case of `O=c1c2ccc(C#Cc3ccco3)cc2nc2n1CCC1(CC2)OCCO1` [Example 7.55] it was 30 to 100 nM; in that of `O=c1c2ccc(C#Cc3ccoc3)cc2nc2n1CCC1(CC2)OCCO1` [Example 7.56], 30 to 100 nM; in that of `O=c1c2ccc(C#Cc3cccs3)cc2nc2n1CCC1(CC2)OCCO1` [Example 7.57], 30 to 100 nM.
Take `Cc1ccsc1C#Cc1ccc2c(=O)n3c(nc2c1)CCC1(CC3)OCCO1` [Example 7.58]: the EC50 lay in the range of 300 to 1000 nM.
`O=c1c2ccc(C#Cc3ccsc3)cc2nc2n1CCC1(CC2)OCCO1` [Example 7.59]: the EC50 is 10 to 30 nM.
As to `O=c1c2ccc(C#Cc3nccs3)cc2nc2n1CCC1(CC2)OCCO1` [Example 7.60], the EC50 was in the range of 300 to 1000 nM.
Same read-out and setting: in the case of `Cc1csc(C#Cc2ccc3c(=O)n4c(nc3c2)CCC2(CC4)OCCO2)n1` [Example 7.61] it was 30 to 100 nM; in that of `O=c1c2ccc(C#Cc3cscn3)cc2nc2n1CCC1(CC2)OCCO1` [Example 7.62], 300 to 1000 nM.
As to `Cc1scnc1C#Cc1ccc2c(=O)n3c(nc2c1)CCC1(CC3)OCCO1` [Example 7.63], the concentration for a half-maximal effect (EC50) was in the range of 300 to 1000 nM.
With `Cc1noc(C)c1C#Cc1ccc2c(=O)n3c(nc2c1)CCC1(CC3)OCCO1` [Example 7.67], the concentration for a half-maximal effect (EC50) is 10 to 30 nM.
On the same count and under the same terms, in the case of `Cn1cc(C#Cc2ccc3c(=O)n4c(nc3c2)CCC2(CC4)OCCO2)cn1` [Example 7.69] it was 100 to 300 nM; in that of `CN1CCc2nc3cc(C#Cc4ccc(F)cc4)ccc3c(=O)n2CC1` [Example 8.1, 8-((4-fluorophenyl)ethynyl)-3-methyl-2,3,4,5-tetrahydro-[1,4]diazepino[7,1-b]quinazolin-11(1H)-one], 100 to 300 nM; in that of `CCN1CCc2nc3cc(C#Cc4ccc(F)cc4)ccc3c(=O)n2CC1` [Example 8.2, 3-ethyl-8-((4-fluorophenyl)ethynyl)-2,3,4,5-tetrahydro-[1,4]diazepino[7,1-b]quinazolin-11(1H)-one], 100 to 300 nM.
On to `CC(C)N1CCc2nc3cc(C#Cc4ccc(F)cc4)ccc3c(=O)n2CC1` [Example 8.3, 8-((4-fluorophenyl)ethynyl)-3-isopropyl-2,3,4,5-tetrahydro-[1,4]diazepino[7,1-b]quinazolin-11(1H)-one], for which the EC50 was 100 to 300 nM.
`O=c1c2ccc(C#Cc3cccc(F)c3)cc2nc2n1CCNCC2` [Example 8.6, 8-((3-fluorophenyl)ethynyl)-2,3,4,5-tetrahydro-[1,4]diazepino[7,1-b]quinazolin-11(1H)-one]: the EC50 was in the range of 100 to 300 nM.
As for `CN1CCc2nc3cc(C#Cc4cccc(F)c4)ccc3c(=O)n2CC1` [Example 8.7, 8-((3-fluorophenyl)ethynyl)-3-methyl-2,3,4,5-tetrahydro-[1,4]diazepino[7,1-b]quinazolin-11(1H)-one], the half-maximal effective concentration (EC50) is 30 to 100 nM.
On the same count and under the same terms, the figure for `CCCN1CCc2nc3cc(C#Cc4cccc(F)c4)ccc3c(=O)n2CC1` [Example 8.8, 8-((3-fluorophenyl)ethynyl)-3-propyl-2,3,4,5-tetrahydro-[1,4]diazepino[7,1-b]quinazolin-11(1H)-one] is 100 to 300 nM.

Staying with this test, now noted: mGluR5 PAM EC50, HEK293/GLAST cells expressing recombinant human mGluR5; FLIPR calcium signal; glutamate added at its EC20.
Consider `CC1(C)CCc2nc3cc(C#Cc4ccccn4)ccc3c(=O)n2CC1` [Example 6.40, 8,8-dimethyl-3-(pyridin-2-ylethynyl)-7,8,9,10-tetrahydroazepino[2,1-b]quinazolin-12(6H)-one], for which the EC50 was less than 10 nM.
